Structures are written as SMILES.

Experiment [1] has as its target Tyrosine-protein kinase JAK2 (Homo sapiens, UniProt O60674). Put plainly: Inhibition of human recombinant N-terminal GST tagged JAK2 JH1 catalytic domain (532 to 1132 residues) expressed in baculovirus expression system using Tyr6 peptide as measured after 1 hr in presence of ATP by Z'-LYTE assay.
Experiment [2] deals with Hepatocyte growth factor receptor (Homo sapiens, UniProt P08581). In words: Inhibition of human recombinant His-tagged cMET cytoplasmic domain expressed in baculovirus expression system using tyrosine 6 peptide as substrate after 60 mins in presence of ATP FRET based Z'-LYTE assay.
Experiment [3] has as its target RAC-gamma serine/threonine-protein kinase (Homo sapiens, UniProt Q9Y243). Put plainly: Inhibition of recombinant full length human His-tagged AKT3 expressed in baculovirus expression system using Ser/Thr-06 peptide as substrate incubated for 60 mins in presence of ATP by Z'-LYTE assay.
Experiment [4] has as its target Rho-associated protein kinase 2 (Homo sapiens, UniProt O75116). In words: Inhibition of recombinant human GST-tagged ROCK2 catalytic domain expressed in baculovirus expression system using serine/threonine-13 peptide as substrate incubated for 60 mins in presence of ATP by Z'-LYTE assay.
The target in experiment [5] is Serine/threonine-protein kinase Chk2 (Homo sapiens, UniProt O96017). In words: Inhibition of recombinant human full-length His-tagged CHEK2 expressed in baculovirus expression system using FRET-labeled Ser/Thr 07 peptide as substrate measured after 1 hr in presence of ATP by Z'-lyte assay.
Experiment [6] concerns the target cAMP-dependent protein kinase catalytic subunit PRKX (Homo sapiens, UniProt P51817). Put plainly: Inhibition of recombinant full length human GST-tagged PRKX expressed in baculovirus expression system using serine/threonine-1 peptide as substrate incubated for 60 mins in presence of ATP by Z'-LYTE assay.
Experiment [7] addresses Phosphodiesterase 3 (Homo sapiens) (UniProt Q14432+Q13370). Put plainly: Inhibition of human platelet PDE3 at 10 uM using cAMP as substrate after 20 mins in presence of [3H]cAMP by radiometric scintillation assay relative to control.
Experiment [8] concerns the target Calcium/calmodulin-dependent protein kinase type II subunit alpha (Homo sapiens, UniProt Q9UQM7). Put plainly: Inhibition of recombinant full length human His-tagged CAMK2alpha expressed in baculovirus expression system using serine/threonine-4 peptide as substrate incubated for 60 mins in presence of ATP by Z'-LYTE assay.
The target of experiment [9] is Mast/stem cell growth factor receptor Kit (Homo sapiens, UniProt P10721). In words: Inhibition of human recombinant His-tagged KIT cytoplasmic domain expressed in baculovirus expression system using Tyr6 peptide as measured after 1 hr in presence of ATP by Z'-LYTE assay.
Mast/stem cell growth factor receptor Kit, sequence (P10721 whole entry, the tested form may be a part): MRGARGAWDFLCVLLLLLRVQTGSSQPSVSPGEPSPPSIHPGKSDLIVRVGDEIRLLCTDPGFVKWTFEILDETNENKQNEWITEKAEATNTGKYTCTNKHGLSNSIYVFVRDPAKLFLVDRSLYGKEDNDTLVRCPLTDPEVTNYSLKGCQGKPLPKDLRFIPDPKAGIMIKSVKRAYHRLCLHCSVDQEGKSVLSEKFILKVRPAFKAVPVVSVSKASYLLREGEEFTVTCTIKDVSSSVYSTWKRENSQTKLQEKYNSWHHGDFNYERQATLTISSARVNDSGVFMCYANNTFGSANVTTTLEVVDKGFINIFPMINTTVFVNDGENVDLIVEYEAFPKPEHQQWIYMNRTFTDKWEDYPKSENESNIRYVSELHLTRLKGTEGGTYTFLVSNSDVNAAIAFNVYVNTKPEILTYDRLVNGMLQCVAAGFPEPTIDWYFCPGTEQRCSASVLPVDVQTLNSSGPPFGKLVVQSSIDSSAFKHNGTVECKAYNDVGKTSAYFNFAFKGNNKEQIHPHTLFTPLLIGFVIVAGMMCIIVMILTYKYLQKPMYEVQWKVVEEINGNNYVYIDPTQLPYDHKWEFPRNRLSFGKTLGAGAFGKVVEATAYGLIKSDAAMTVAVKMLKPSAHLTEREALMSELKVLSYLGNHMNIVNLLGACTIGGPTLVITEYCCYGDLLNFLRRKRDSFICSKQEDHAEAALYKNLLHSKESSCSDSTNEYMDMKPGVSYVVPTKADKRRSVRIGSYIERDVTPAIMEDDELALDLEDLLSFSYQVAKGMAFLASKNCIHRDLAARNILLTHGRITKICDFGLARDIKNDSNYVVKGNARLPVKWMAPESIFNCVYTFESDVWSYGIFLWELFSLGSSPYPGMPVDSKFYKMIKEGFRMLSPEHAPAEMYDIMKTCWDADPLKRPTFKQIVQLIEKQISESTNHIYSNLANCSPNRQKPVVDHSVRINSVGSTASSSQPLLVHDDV
For experiment [10], the target named is Inhibitor of nuclear factor kappa-B kinase subunit beta (Homo sapiens, UniProt O14920). Put plainly: Inhibition of recombinant human full-length GST-tagged IKBKB expressed in baculovirus expression system using FRET-labeled Ser/Thr 05 peptide as substrate measured after 1 hr in presence of ATP by Z'-lyte assay.
Experiment [11] concerns the target D(2) dopamine receptor (Homo sapiens) (UniProt P14416). Put plainly: Displacement of [3H]spiperone from recombinant full length human recombinant D2S receptor expressed in CHO cells at 10 uM measured after 120 mins by radiometric scintillation analysis relative to control. It counts as cell-based. In general terms: Displacement assays read how much labelled ligand stays bound in the presence of the test substance.

Experiment [12] addresses Melanocortin receptor 4 (Homo sapiens) (UniProt P32245). In words: Displacement of [125I]NDP-alpha-MSH from full length human recombinant MC4 receptor expressed in HEK293 cells at 10 uM measured after 120 mins by radiometric scintillation analysis relative to control. Type of experiment: cell-based.
The target in experiment [13] is Serine/threonine-protein kinase 26 (Homo sapiens, UniProt Q9P289). In words: Inhibition of recombinant full length human GST-tagged MST4 expressed in baculovirus expression system using serine/threonine-7 peptide as substrate incubated for 60 mins in presence of ATP by Z'-LYTE assay.
Experiment [14] has as its target Epidermal growth factor receptor (Homo sapiens, UniProt P00533, L858R/T790M). In words: Inhibition of human recombinant GST-tagged EGFR L858R/T790M mutant expressed in baculovirus expression system using tyrosine 4 peptide as substrate after 60 mins in presence of ATP FRET based Z'-LYTE assay.
In experiment [15] the target is Protein kinase C zeta type (Homo sapiens, UniProt Q05513). Put plainly: Inhibition of recombinant full length human PKCzeta expressed in baculovirus expression system using serine/threonine-7 peptide as substrate incubated for 60 mins in presence of ATP by Z'-LYTE assay.
Experiment [16] concerns the target Estrogen receptor (Homo sapiens) (UniProt P03372). Put plainly: Displacement of [3H]estradiol from recombinant full length human recombinant ERalpha receptor expressed in Sf9 insect cells at 10 uMmeasured after 120 mins by radiometric scintillation analysis relative to control. Conditions: 10 uM.
Experiment [17] deals with Maternal embryonic leucine zipper kinase (Homo sapiens, UniProt Q14680). Put plainly: Inhibition of recombinant human GST-tagged MELK catalytic domain expressed in baculovirus expression system using serine/threonine-17 peptide as substrate incubated for 60 mins in presence of ATP by Z'-LYTE assay.
Maternal embryonic leucine zipper kinase, sequence (Q14680 whole entry, the tested form may be a part): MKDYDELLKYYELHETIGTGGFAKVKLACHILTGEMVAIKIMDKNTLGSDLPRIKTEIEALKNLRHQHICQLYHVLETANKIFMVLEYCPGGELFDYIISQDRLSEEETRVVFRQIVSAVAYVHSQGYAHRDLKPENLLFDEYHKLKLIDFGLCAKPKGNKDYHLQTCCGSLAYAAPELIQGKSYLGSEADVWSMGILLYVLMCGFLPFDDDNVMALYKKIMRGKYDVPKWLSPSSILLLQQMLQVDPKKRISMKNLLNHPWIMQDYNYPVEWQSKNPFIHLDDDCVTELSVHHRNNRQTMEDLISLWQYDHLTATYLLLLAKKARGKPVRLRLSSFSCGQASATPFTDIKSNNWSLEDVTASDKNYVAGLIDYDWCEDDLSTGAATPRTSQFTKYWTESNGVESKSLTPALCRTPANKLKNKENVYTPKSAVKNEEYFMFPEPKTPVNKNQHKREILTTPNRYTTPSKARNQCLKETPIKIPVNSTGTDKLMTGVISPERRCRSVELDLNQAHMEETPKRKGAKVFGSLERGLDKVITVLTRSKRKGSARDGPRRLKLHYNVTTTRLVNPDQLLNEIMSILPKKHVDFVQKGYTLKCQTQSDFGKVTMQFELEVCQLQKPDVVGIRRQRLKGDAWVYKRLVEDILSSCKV
Experiment [18] concerns the target Dual specificity tyrosine-phosphorylation-regulated kinase 3 (Homo sapiens, UniProt O43781). In words: Inhibition of recombinant full length human GST-tagged DYRK3 expressed in baculovirus expression system using serine/threonine-9 peptide as substrate incubated for 60 mins in presence of ATP by Z'-LYTE assay.
The target in the next experiment is Angiopoietin-1 receptor (Homo sapiens, UniProt Q02763). Put plainly: Inhibition of recombinant human GST-tagged TIE2 (817 to 1101 residues) expressed in baculovirus expression system using tyrosine-5 peptide as substrate incubated for 60 mins in presence of ATP by Z'-LYTE assay.
In experiment [19] the target is Proto-oncogene tyrosine-protein kinase receptor Ret (Homo sapiens, UniProt P07949, V804L). In words: Inhibition of recombinant human GST-tagged RET V804L mutant cytoplasmic domain expressed in baculovirus expression system using tyr02 peptide as substrate incubated for 60 mins in presence of ATP by Z'-LYTE assay.
Experiment [20] deals with Hepatocyte growth factor receptor (Homo sapiens, UniProt P08581, M1250T). In words: Inhibition of human recombinant His-tagged cMET M1250T mutant cytoplasmic domain expressed in baculovirus expression system using tyrosine 6 peptide as substrate after 60 mins in presence of ATP FRET based Z'-LYTE assay.
Experiment [21] has as its target Homeodomain-interacting protein kinase 1 (Homo sapiens, UniProt Q86Z02). Put plainly: Inhibition of recombinant human GST-tagged HIPK1 catalytic domain expressed in baculovirus expression system using serine/threonine-9 peptide as substrate incubated for 60 mins in presence of ATP by Z'-LYTE assay.
Experiment [22] has as its target Ribosomal protein S6 kinase alpha-1 (Homo sapiens, UniProt Q15418). Put plainly: Inhibition of recombinant full length human His-tagged RPS6KA1 expressed in baculovirus expression system using […] peptide as substrate incubated for 60 mins in presence of ATP by Z'-LYTE assay.
For experiment [23], the target named is Protein kinase C gamma type (Homo sapiens, UniProt P05129). Put plainly: Inhibition of recombinant full length human GST-tagged PRKCG expressed in insect expression system using serine/threonine-7 peptide as substrate incubated for 60 mins in presence of ATP by Z'-LYTE assay.

Melanocortin receptor 4 (Homo sapiens), sequence (P32245 whole entry): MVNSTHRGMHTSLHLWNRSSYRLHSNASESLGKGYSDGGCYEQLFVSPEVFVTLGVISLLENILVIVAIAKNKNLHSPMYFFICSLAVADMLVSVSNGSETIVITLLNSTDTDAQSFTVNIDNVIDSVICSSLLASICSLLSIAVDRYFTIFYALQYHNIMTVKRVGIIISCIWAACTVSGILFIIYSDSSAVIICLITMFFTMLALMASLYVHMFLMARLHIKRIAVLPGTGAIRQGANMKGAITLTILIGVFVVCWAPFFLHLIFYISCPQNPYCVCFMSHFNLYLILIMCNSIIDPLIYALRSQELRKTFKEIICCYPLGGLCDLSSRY
RAC-gamma serine/threonine-protein kinase, sequence (Q9Y243 whole entry, the tested form may be a part): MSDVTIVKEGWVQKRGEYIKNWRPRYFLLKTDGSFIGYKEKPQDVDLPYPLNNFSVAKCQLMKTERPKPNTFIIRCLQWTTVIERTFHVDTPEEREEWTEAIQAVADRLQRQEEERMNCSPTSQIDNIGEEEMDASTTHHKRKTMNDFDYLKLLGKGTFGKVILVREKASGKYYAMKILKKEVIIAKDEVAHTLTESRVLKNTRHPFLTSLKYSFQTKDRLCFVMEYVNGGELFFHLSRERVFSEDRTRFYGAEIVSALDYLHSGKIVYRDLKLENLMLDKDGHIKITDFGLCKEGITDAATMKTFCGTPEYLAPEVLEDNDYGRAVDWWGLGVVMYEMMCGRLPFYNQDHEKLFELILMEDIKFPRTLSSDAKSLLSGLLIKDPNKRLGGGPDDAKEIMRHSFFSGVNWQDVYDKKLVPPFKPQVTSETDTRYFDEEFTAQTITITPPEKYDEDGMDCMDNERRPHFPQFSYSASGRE
Tyrosine-protein kinase JAK2, sequence (O60674 whole entry, the tested form may be a part): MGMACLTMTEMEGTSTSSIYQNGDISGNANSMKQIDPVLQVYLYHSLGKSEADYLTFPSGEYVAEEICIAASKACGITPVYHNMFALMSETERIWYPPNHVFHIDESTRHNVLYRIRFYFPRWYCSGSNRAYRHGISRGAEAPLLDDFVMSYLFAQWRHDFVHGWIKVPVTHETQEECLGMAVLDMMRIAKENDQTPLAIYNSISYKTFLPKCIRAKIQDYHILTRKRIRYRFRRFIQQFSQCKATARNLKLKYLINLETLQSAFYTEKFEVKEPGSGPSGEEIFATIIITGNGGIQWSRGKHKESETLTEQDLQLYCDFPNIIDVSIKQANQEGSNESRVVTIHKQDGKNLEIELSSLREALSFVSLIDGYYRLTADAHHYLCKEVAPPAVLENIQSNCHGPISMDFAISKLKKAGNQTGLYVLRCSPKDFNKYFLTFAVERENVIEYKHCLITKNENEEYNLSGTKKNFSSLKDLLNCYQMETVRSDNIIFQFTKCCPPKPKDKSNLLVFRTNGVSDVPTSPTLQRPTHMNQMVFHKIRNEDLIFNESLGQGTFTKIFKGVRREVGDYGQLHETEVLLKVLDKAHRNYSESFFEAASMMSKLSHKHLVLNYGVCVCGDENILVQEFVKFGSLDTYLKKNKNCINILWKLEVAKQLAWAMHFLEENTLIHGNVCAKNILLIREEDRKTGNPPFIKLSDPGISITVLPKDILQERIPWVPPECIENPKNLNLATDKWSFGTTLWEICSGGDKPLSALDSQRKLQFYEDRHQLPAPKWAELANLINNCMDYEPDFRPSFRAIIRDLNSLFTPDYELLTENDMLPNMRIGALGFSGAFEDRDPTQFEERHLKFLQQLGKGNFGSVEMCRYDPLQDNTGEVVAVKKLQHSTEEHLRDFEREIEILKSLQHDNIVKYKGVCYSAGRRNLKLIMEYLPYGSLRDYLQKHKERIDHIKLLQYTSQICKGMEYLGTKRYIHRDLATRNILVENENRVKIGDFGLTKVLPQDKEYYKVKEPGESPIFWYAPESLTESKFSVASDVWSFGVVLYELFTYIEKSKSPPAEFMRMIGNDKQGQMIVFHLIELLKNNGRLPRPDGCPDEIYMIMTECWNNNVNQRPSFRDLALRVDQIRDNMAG
Dual specificity tyrosine-phosphorylation-regulated kinase 3, sequence (O43781 whole entry, the tested form may be a part): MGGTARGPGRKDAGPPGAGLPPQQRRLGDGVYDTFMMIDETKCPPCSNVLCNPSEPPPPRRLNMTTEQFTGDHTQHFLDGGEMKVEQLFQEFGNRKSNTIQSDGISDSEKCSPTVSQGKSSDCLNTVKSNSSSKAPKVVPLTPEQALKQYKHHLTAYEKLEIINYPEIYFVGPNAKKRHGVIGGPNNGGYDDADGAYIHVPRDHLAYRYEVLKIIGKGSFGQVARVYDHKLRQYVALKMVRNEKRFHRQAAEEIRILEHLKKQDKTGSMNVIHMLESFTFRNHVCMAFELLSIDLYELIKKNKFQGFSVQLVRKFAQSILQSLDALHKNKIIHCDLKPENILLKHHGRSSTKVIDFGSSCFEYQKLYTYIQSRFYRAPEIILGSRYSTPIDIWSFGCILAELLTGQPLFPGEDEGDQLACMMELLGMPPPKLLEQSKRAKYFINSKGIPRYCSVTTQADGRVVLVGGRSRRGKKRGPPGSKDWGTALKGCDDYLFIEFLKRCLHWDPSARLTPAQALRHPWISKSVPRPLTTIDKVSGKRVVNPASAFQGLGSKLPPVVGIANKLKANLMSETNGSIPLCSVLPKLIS
D(2) dopamine receptor (Homo sapiens), sequence (P14416 whole entry): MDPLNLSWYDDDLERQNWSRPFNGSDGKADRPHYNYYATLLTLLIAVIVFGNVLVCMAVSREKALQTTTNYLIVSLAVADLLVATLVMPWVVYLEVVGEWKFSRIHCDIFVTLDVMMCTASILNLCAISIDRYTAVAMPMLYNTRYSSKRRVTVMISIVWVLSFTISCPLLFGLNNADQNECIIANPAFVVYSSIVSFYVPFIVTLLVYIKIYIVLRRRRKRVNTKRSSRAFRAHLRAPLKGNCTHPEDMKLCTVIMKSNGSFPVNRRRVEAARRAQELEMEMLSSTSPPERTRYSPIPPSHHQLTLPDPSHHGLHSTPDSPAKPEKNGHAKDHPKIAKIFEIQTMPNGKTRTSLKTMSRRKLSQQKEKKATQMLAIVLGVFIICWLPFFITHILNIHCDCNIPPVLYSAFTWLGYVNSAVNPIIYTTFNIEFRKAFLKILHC
cAMP-dependent protein kinase catalytic subunit PRKX, sequence (P51817 whole entry): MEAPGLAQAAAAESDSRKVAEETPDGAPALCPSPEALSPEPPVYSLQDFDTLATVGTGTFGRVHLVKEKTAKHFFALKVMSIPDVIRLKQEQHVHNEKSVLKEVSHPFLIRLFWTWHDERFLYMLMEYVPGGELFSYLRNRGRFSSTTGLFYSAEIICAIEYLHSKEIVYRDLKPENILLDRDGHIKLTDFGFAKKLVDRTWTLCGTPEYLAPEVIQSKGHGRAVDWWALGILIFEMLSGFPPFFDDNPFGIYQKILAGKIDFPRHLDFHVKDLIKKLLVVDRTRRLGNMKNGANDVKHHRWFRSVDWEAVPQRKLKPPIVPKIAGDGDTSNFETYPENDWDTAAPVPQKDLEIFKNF

In the case of `C[C@@H]1C[C@H]1C(=O)N1CCN(c2cnc(C#N)c(-c3cnn(C)c3)n2)C[C@H]1C`, the IC50 in experiment [1], in experiment [2], in [3], in experiment [4], in experiment [5] and in [6] was greater than 100 µM each time. The IC50 in [8], in experiment [9], in experiment [10], in experiment [13], in experiment [14] and in experiment [15] was greater than 100 µM each time. Besides, the IC50 (in [17]; in [18]; on Angiopoietin-1 receptor; in experiment [19]; in [20]; in experiment [21]) was greater than 100 µM each time. Besides, the IC50 in [22] and in experiment [23] was greater than 100 µM throughout. The inhibition (commonly the percentage by which the read-out fell short of the control) in experiment [7] turned out to be 21%; in experiment [11], 0%; in experiment [12], 5%; in experiment [16] it was 0%.

The values are drawn from ChEMBL document CHEMBL4602617, “Discovery and optimization of heteroaryl piperazines as potent and selective PI3Kδ inhibitors” (Bioorg Med Chem Lett, 2020).
